Experiments:
[1] = Inhibition of influenza B virus (B/Brisbane/60/2008) neuraminidase using MUNANA substrate pre-incubated for 30 mins before substrate addition by fluorometric assay
[2] = Cytotoxicity against MDCK cells; assay type: cell-based, Canis lupus familiaris; conditions: dog
[3] = Selectivity index, ratio of CC50 for MDCK cells to IC50 for influenza A virus (A/Perth/16/2009(H3N2)); assay type: functional

Row | Compound | IC50 [1] | CC50 [2] | Ratio CC50/IC50 [3]
1 | C[C@@H]1O[C@@H](Oc2c(-c3ccc(O)c(O)c3)oc3cc(O)cc(O)c3c2=O)[C@H](O)[C@H](O)[C@H]1O [QUERCITRIN] | 112 µM | > 446 µM | >4.1
2 | O=c1c(O[C@@H]2O[C@H](CO)[C@@H](O)[C@H](O)[C@H]2O)c(-c2ccc(O)c(O)c2)oc2cc(O)cc(O)c12 [ISOQUERCETIN] | 384 µM | > 431 µM | >1.2
3 | O=c1c(O)c(-c2ccc(O)cc2)oc2cc(O)cc(O)c12 [KAEMPFEROL] | 90.8 µM | 581 µM | 6.8
4 | O=c1c(O[C@@H]2O[C@H](CO)[C@H](O)[C@H](O)[C@H]2O)c(-c2ccc(O)c(O)c2)oc2cc(O)cc(O)c12 [HYPEROSIDE] | 88.1 µM | > 431 µM | >6.9
5 | CCOC(=O)C1=C[C@@H](OC(CC)CC)[C@H](NC(C)=O)[C@@H](N)C1 [OSELTAMIVIR] | 0.0454 µM | – | –
6 | O=c1cc(-c2ccc(O)c(O)c2)oc2cc(O[C@@H]3O[C@H](CO)[C@@H](O)[C@H](O)[C@H]3O)cc(O)c12 [GALUTEOLIN] | 57.2 µM | > 446 µM | >6.7
7 | C[C@@H]1O[C@@H](OC[C@H]2O[C@@H](Oc3c(-c4ccc(O)c(O)c4)oc4cc(O)cc(O)c4c3=O)[C@H](O)[C@@H](O)[C@@H]2O)[C@H](O)[C@H](O)[C@H]1O [RUTIN] | 105 µM | > 328 µM | >3.4

Reference: ChEMBL document CHEMBL3352453, “Inhibitory potency of flavonoid derivatives on influenza virus neuraminidase” (Bioorg Med Chem Lett, 2014)
